Test results: publication PMC9133112, “The structural basis of Cdc7-Dbf4 kinase dependent targeting and phosphorylation of the MCM2-7 double hexamer” (Nature Communications, 2022)

Target: T1, DDK (Dbf4-dependent Cdc7 kinase, Cdc7-Dbf4) (Saccharomyces cerevisiae, UniProt P06243)
T1 construct: full-length Cdc7-Dbf4, expressed in budding yeast, MBP tag cleaved with PreScission, lambda phosphatase treated; with DDK kinase regulatory subunit DBF4
Test: inhibition of MCM2-7 phosphorylation by DDK (gel)
Format: biochemical
Settings: substrate MCM2-7

T1 sequence (P06243 whole entry): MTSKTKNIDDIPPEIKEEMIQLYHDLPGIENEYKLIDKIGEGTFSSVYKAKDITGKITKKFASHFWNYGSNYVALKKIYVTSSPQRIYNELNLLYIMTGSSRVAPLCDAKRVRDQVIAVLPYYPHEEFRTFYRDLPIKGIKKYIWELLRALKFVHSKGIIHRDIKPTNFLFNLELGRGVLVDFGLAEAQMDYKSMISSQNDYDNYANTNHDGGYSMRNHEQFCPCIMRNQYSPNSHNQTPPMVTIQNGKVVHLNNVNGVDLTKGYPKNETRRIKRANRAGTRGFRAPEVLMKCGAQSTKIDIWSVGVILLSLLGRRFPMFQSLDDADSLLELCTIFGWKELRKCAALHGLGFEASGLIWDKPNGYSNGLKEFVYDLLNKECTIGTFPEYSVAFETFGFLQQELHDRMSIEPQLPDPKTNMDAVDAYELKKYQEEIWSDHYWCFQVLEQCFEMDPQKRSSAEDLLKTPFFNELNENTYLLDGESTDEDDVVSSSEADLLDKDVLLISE
T1 sequence (P32325 whole entry partner): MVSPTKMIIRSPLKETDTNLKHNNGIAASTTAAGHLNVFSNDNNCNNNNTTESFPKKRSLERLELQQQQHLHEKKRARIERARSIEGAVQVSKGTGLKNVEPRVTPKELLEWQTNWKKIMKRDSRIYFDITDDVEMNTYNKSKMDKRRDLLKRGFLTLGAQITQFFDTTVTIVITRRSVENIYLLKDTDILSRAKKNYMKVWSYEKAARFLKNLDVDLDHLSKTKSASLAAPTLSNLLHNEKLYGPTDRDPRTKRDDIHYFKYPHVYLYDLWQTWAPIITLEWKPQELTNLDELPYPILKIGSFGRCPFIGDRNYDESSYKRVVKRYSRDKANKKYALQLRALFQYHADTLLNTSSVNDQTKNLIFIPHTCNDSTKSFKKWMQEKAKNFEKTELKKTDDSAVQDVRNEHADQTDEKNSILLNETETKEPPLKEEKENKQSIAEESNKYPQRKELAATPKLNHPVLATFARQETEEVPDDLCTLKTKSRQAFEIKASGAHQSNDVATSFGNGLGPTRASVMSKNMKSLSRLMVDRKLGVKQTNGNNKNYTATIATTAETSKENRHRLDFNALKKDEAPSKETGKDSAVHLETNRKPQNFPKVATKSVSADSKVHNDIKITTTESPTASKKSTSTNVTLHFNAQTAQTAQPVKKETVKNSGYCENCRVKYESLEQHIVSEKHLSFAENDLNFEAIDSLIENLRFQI

SMILES	inhibition
Cc1[nH]ncc1-c1cc2nc([C@@H]3CC4CCN3CC4)[nH]c(=O)c2s1 [TAK931]	DDK phosphorylation of MCM2-7 is inhibited by the human Cdc7 inhibitors: XL413, PHA767491 and TAK931
O=C1NCCc2[nH]c(-c3ccncc3)cc21 [PHA767491]	DDK phosphorylation of MCM2-7 is inhibited by the human Cdc7 inhibitors: XL413, PHA767491 and TAK931
O=c1[nH]c([C@@H]2CCCN2)nc2c1oc1ccc(Cl)cc12 [XL413]	DDK phosphorylation of MCM2-7 is inhibited by the human Cdc7 inhibitors: XL413, PHA767491 and TAK931
